Patent US9359314B2, “Thiazine amide derivative and pharmaceutical composition and use thereof” (Institute Of Pharmacology And Toxicology Academy Of …, priority 2012, dated 2016)

Assays:
[1] = tested on: chicken embryonic dorsal root ganglia; assay: Neurotrophic activity: in-vitro serum-free culture model of chicken embryonic dorsal root ganglia, neurite growth score; type: cell-based; conditions: 48 h, score 0-3, control 0.33
Description: The neurotrophic activity of the compound of the present invention can be reflected on a variety of in-vitro biological models, such as an in-vitro serum-free culture model of chicken embryonic dorsal root ganglia. Chicken embryo incubated for 8 d was used, and spine and ganglia on the two sides were exposed under a dissecting microscope in sterile environment. The dorsal root ganglia was picked one by one with tweezers, inoculated into culture bottles laid with rat tail collagen according to 5-6 dorsal root ganglia per bottle, two bottles were prepared per dose, and cultured at 37° C., 5% of CO2, for 1 h in an incubator for adherence, then added with a serum-free culture medium DMEM containing NGF (0.15 ng/mL) and the compound of the present invention, while the control group was only added with the culture medium and the same dose of NGF. After being cultured in the incubator for 48 h, the growth of the neurite around dorsal root ganglia was observed under an inverted phase contrast microscope and scored according to the length and density of the neurite, wherein 0 point represents no neurite; 1 point represents the neurite was sparse; 2 points represent the neurite was relatively long or dense; and 3 points represent the neurite was long and dense. The score of the growth of neurite of chicken embryonic dorsal root ganglion under the promotion of the compound of the present invention with different dosage was shown in table 1, wherein each score is an average of five dorsal root ganglia.

MDCK-MDR1 cells = tested on: MDCK-MDR1 cells
Description: MDCK-MDR1 cells are monolayer cells with high expression of a P-gp transporter after MDR1 genes are transfected in MDCK (Madin-Darby canine kidney epithelial cells). Due to the compactness of the monolayer cells and high expression of a pharmaceutical efflux protein, the cells have a similarity to the structure of the blood-brain barrier (BBB), and can be used as one of the models for evaluating the BBB permeability. Because the compounds of the present invention targeted at the central nervous system and were needed to permeate the BBB, the MDCK-MDR1 cells were applied to research the membrane permeability, and the BBB permeability was preliminarily evaluated.
The cryopreserved MDCK-MDR1 cells were fast thawed in a 37° C. water bath. The postthawed cells were added into a DMEM culture medium containing 10% FBS, cultured in an incubator at 37° C., 5% CO2, with the relative humidity of 90%, and the culture medium was replaced every other day. After 1-2 days' growth for cell fusion, the cells were digested at 37° C., with the mixed digestion solution of 0.25% trysin-EDTA (0.2%), and subcultured according to a certain ratio, wherein the cells used for the experiment are 40˜60-generation cells.
When 80% of the cells were fused, the cells were suspended with a complete culture medium, and inoculated into a Millicell plate according to 1×10^6-mL^−1. The culture solution was changed once every two days, then once every day after 1 week. After cultured for 5 days, the cells were ready for transport experiment when the resistance achieves a platform (>2000 Ω·cm^2).
The solution in the lower pools was collected at 0, 30, 90 and 120 min and stored at −20° C. for later measurement. The permeation amount of the Rho-123 in the lower pools was detected by a fluorescence spectrophotometer, wherein the transmission wavelength was set to […] and the excitation wavelength was set to 530 nm.
The Millicell inoculated with cells was soaked with HBSS solution at 37° C. for an appropriate time before the test, and slightly flushed to remove matters attached on the surfaces of the cells. […] Each concentration was repeated in three wells, the sample was precisely added with 50 μL of internal standard solution and 350 μL of ethyl acetate, shaked and uniformly mixed, centrifugated at 12000 rmp for 5 min, 300 μL of supernatant was took, volatilized to dryness, re-dissolved with 50 μL of acetonitrile and 10 μL was took for sampling and determination. Permeability from the basal surface to the cavity surface: drug was added from the basolateral side (BL), while the blank HBSS solution was added from the apical side (AP), and the following steps were same as those in the permeability test from the cavity surface to the basal surface.
The apparent permeability coefficient (Papp) of the drug reflected the capability of permeating the monolayer cells of the drug and the absorption speed and degree of the drug, which can be calculated by the following formula: […]
wherein, ΔQ was the permeation amount of the drug in a Δt time period, A was the surface area of the cells, namely the area (0.6 cm^2) of a support membrane in the model, and CO was the initial concentration. The unit of the Papp was commonly represented by cm·h^−1 or cm·s^−1.
The sample was detected by LC/MS. Concentration of each sample was quantified with a standard curve (50 nM-10000 nM).

BCAO-LBP mice = assay: Anti incomplete cerebral ischemia effect in mouse bilateral carotid artery occlusion with low blood pressure (BCAO-LBP) model, intragastric administration; type: in vivo, Kunming mice; conditions: 30 mg/kg i.g once per day for 3 d, x ± SEM; for Neural deficit score: medium group 3.92 ± 0.25; for MDA content: whole brain, medium group 40.94 ± 1.754
Description: The example, which took Kunming mice as experimental subjects, investigated the protection of prevention administration of the compound of the present invention against incomplete cerebral ischemia of mice, through intravenous and intragastric administration, on mouse bilateral carotid artery occlusion with low blood pressure (BCAO-LBP) model, by measuring neurological function score and MDA content in brain.
2.1.2 Preparation of drug for intragastric administration: the compound of the present invention was made into 30 mg/kg by using 0.7% CMC-Na, fully and uniformly mixed with sonication to afford a solution of 1.5 mg/ml. Intragastric (i.g) administration was performed according to 0.2 ml/10 g.
28 mice which had adapted to the laboratory environment for one week were divided into balanced groups according to body weight, i.g administered respectively with 0.7% CMC-Na or the compound of the present invention, once per day for continuous 3 d. The specific groups were as follows:
drug group: 12 mice, with i. g of solution of compounds of the present invention separately, wherein the dosage was 30 mg/kg
2.3.1 Mouse bilateral carotid artery ligation: the mouse was performed with orbit bloodletting (about 30% of the total blood volume of the mouse) to lower the blood pressure 1 h later after last administration, then the mouse was fixed on an operation plate in a supine position, and an incision in the middle of the neck was made. The common carotid artery was exposed with blunt separation, and 2 sutures were prepared under each end of the exposed artery, and both end of the artery were ligatured, respectively. When the ligation was completed for the […], started timing, then cut the common carotid artery between the two ligations, and the incision was sutured. In the sham operation group, the common carotid artery was separated without ligation. The mouse was rapidly released after the operation, the behavior in 6 h and the death time of the mouse was observed and recorded (scored by a blind method according to the following table). The brain was quickly took out after death, the cerebellum was removed, and the MDA content in the whole brain was determined by a TBA method.
The brain of a mouse was taken out, weighted, prepared into 15% brain homogenate with N.S, 1.2 ml of the homogenate was taken out and put into a 37° C. water bath for 1 h (shaked once every 10 min), then taken out from water, added with 0.6 ml of 20% trichloroacetic acid, uniformly mixed, and stood for 10 min, centrifugated at 2000 r for 10 min, 1.2 ml of supernatant fluid was added with 0.6 ml of 0.67% TBA, and put into a boiling water bath for 10 min, then cooled, and OD value was determined at 532 nm.
Experimental data was represented by x±SEM, SPSS13.0 statistical software was applied, homogeneity of variance was judged by single-factor variance analysis. The homogeneity of variance was tested by LSD, the non-homogeneity of variance was tested by Dunnett's T3, the significant differences between the groups were compared and P<0.05 represented a statistical significance.

[2] = compound 1 pM + NGF (0.15 ng/mL)
[3] = compound 100 pM + NGF (0.15 ng/mL)

| Compound | melting point | Mean score (growth of neurite of chicken embryonic dorsal root ganglion) [1, 2] | Mean score (growth of neurite of chicken embryonic dorsal root ganglion) [1, 3] | Papp(×10^−6) (MDCK-MDR1 cells) | Neural deficit score (BCAO-LBP mice) | MDA content (BCAO-LBP mice) |
| --- | --- | --- | --- | --- | --- | --- |
| Cc1ccc(S(=O)(=O)N2CCSC[C@H]2C(=O)N[C@H](CC(C)C)C(=O)O)cc1 (hydrate or solvate) [Example 10, (2R)-4-Methyl-2-{[(3R)-4-(toluene-4-sulfonyl)-thiomorpholine-3-carbonyl]-amino}-pentanoic acid] | 87 to 89 °C | – | – | – | – | – |
| CCOC(=O)[C@H](CC(C)C)NC(=O)[C@@H]1CSCCN1S(=O)(=O)c1ccc(C)cc1 [Example 5, (2S)-4-Methyl-2-{[(3R)-4-(toluene-4-sulfonyl)-thiomorpholine-3-carbonyl]-amino}-pentanoic acid ethyl ester] | – | 0.65 | 1.55 | 8.38 ×10^−6 | 3.62 ± 0.31 | 36.09 ± 1.85 nmol/g |
| CCOC(=O)[C@@H](CC(C)C)NC(=O)[C@@H]1CSCCN1S(=O)(=O)c1ccc(C)cc1 [Example 6, (2R)-4-Methyl-2-{[(3R)-4-(toluene-4-sulfonyl)-thiomorpholine-3-carbonyl]-amino}-pentanoic acid ethyl ester] | – | 1.23 | 1.88 | 19.2 ×10^−6 | 3.08 ± 0.40 | 30.87 ± 0.95 nmol/g |
| CCCOC(=O)[C@@H](CC(C)C)NC(=O)[C@@H]1CSCCN1S(=O)(=O)c1ccc(C)cc1 [Example 7, (2R)-4-Methyl-2-{[(3R)-4-(toluene-4-sulfonyl)-thiomorpholine-3-carbonyl]-amino}-pentanoic acid propyl ester] | – | 1.46 | 1.95 | 49.8 ×10^−6 | 2.91 ± 0.28 | 34.90 ± 1.65 nmol/g |
| Cc1ccc(S(=O)(=O)N2CCSC[C@H]2C(=O)N[C@H](CC(C)C)C(=O)OC(C)C)cc1 [Example 8, (2R)-4-Methyl-2-{[(3R)-4-(toluene-4-sulfonyl)-thiomorpholine-3-carbonyl]-amino}-pentanoic acid isopropyl ester] | – | 1.68 | 2.25 | 39.5 ×10^−6 | 2.67 ± 0.31 | 33.27 ± 1.91 nmol/g |
| Cc1ccc(S(=O)(=O)N2CCSC[C@H]2C(=O)N[C@H](CC(C)C)C(=O)OCc2ccccc2)cc1 [Example 9, (2R)-4-Methyl-2-{[(3R)-4-(toluene-4-sulfonyl)-thiomorpholine-3-carbonyl]-amino}-pentanoic acid benzyl ester] | 91 to 93 °C | – | – | 12.4 ×10^−6 | – | – |
| Cc1ccc(S(=O)(=O)N2CCSC[C@H]2C(=O)N[C@H](CC(C)C)C(=O)O)cc1 [Example 10, (2R)-4-Methyl-2-{[(3R)-4-(toluene-4-sulfonyl)-thiomorpholine-3-carbonyl]-amino}-pentanoic acid] | – | – | – | 34.1 ×10^−6 | – | – |
